Read-outs that look alike come from different tables or passages of the source.
Key:
[1] = test system: HIV-1 laboratory strain, NL4-3; experiment: MT-4 cytoprotection assay; format: cell-based
Protocol: The HTLV-1 transformed T cell line, MT-4, is highly susceptible to HIV-1 infection. Anti-HIV-1 agents were evaluated in this target cell line by protection from the HIV-induced cytopathic effect. In this assay, viability of both HIV-1 and mock-infected cells was assessed in a […] assay that monitors the ability of metabolically-active cells to reduce the tetrazolium salt WST-1. Cytoprotection by antiviral compounds is indicated by the positive readout of increased WST-1 cleavage.
Briefly, exponentially growing MT-4 cells were mock-infected or batch-infected with the HIV-1 laboratory strain, NL4-3, at a multiplicity of infection of 0.0005. Following a two hour infection, the cells were washed to remove unbound virus and plated in the presence of increasing concentrations of compound. After four days incubation, cytoprotection in the infected cells and compound toxicity in mock-infected cells were analyzed using the WST-1 assay.

[2] = test system: HIV-1NL4-3; experiment: P4-MAGI assay; format: cell-based
Procedure, shortened: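 Cytotoxicity (TC50, 50% growth inhibition) came from WST-1 in uninfected cells. For antiviral activity, compound at rising concentrations was added immediately after HIV-1NL4-3 inoculation (MOI 1, DEAE-Dextran) of P4 cells, CD4+ HeLa cells expressing β-galactosidase from a minimal HIV-1 LTR upon infection.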

[3] = Human immunodeficiency virus 1, NL43, MT4, 96 h, MT-4 cells, four days incubation, WST-1 readout, read-out: MT4 EC50
[4] = Human immunodeficiency virus 1, 24 h, P4 cells, 24 hour incubation, β-galactosidase expression, read-out: P4-MAGI IC50
[5] = Human immunodeficiency virus 1, text statement, less than about 100 nm, read-out: P4-MAGI assay IC50
[6] = Human immunodeficiency virus 1, NL43, less than about 100 nm, read-out: MT-4 assay EC50 (concentration of compound that reduces the virus induced cytopathic effect by 50%)

SMILES | EC50 [1, 3] | IC50 [2, 4] | IC50 [2, 5] | EC50 [1, 6]
C=C(C)[C@@H]1CC[C@]2(C(=O)NCCc3cccc(C(=O)NCc4ccc(C(=O)N[C@H](CCC(=O)O)C(=O)O)cn4)c3)CC[C@]3(C)C(CCC4[C@@]5(C)CC[C@H](O)C(C)(C)C5CC[C@]43C)C12 (stereo partly drawn) [Example 224] | 258 nM | 35.5 nM |  | 
C=C(C)[C@@H]1CC[C@]2(C(=O)NCCc3cccc(C(=O)NCc4ccc(C(=O)N(C)CCN(C)C)cc4)c3)CC[C@]3(C)C(CCC4[C@@]5(C)CC[C@H](O)C(C)(C)C5CC[C@]43C)C12 (stereo partly drawn) [Example 134] | 240 nM | 68.7 nM | < 100 nM | 
C=C(C)[C@@H]1CC[C@]2(C(=O)NCCc3cccc(S(=O)(=O)NCc4ccc(C(=O)OC)cc4)c3)CC[C@]3(C)C(CCC4[C@@]5(C)CC[C@H](O)C(C)(C)C5CC[C@]43C)C12 (stereo partly drawn) [Example 250] | 594 nM | 106 nM |  | 
C=C(C)[C@@H]1CC[C@]2(C(=O)NCCc3cccc(C(=O)NCC4OC5OC(C)(C)O[C@@H]5[C@@H](O)[C@@H]4O)c3)CC[C@]3(C)C(CCC4[C@@]5(C)CC[C@H](O)C(C)(C)C5CC[C@]43C)C12 (stereo partly drawn) [Example 214] | 214 nM | 200 nM |  | 
C=C(C)[C@@H]1CC[C@]2(C(=O)NCc3cc(C(=O)NCc4ccc(C(=O)O)cc4)ccc3F)CC[C@]3(C)C(CCC4[C@@]5(C)CC[C@H](O)C(C)(C)C5CC[C@]43C)C12 (stereo partly drawn) [Example 99] | 2.8 nM | 20.1 nM | < 100 nM | < 100 nM
C=C(C)[C@@H]1CC[C@]2(C(=O)NCCc3cccc(C(=O)NC(CCC(=O)OC)C(=O)OC)c3)CC[C@]3(C)C(CCC4[C@@]5(C)CC[C@H](O)C(C)(C)C5CC[C@]43C)C12 (stereo partly drawn) [Example 63] | 90 nM | 35.9 nM | < 100 nM | < 100 nM
C=C(C)[C@@H]1CC[C@]2(C(=O)NCc3cccc(C(=O)NCc4cccc(C(=O)O)c4)c3)CC[C@]3(C)C(CCC4[C@@]5(C)CC[C@H](O)C(C)(C)C5CC[C@]43C)C12 (stereo partly drawn) [Example 6] | 71 nM | 15.6 nM | < 100 nM | < 100 nM
C=C(C)[C@@H]1CC[C@]2(C(=O)NCCc3cccc(C(=O)NCC4(CC(=O)O)CCCCC4)c3)CC[C@]3(C)C(CCC4[C@@]5(C)CC[C@H](O)C(C)(C)C5CC[C@]43C)C12 (stereo partly drawn) [Example 212] | 96.5 nM | 85 nM |  | 
C=C(C)[C@@H]1CC[C@]2(C(=O)NCCc3cccc(C(=O)NCCCCC(=O)O)c3)CC[C@]3(C)C(CCC4[C@@]5(C)CC[C@H](O)C(C)(C)C5CC[C@]43C)C12 (stereo partly drawn) [Example 56] | 310 nM | 46.7 nM | < 100 nM | 
C=C(C)[C@@H]1CC[C@]2(C(=O)NCCc3cccc(C(=O)NCc4ccc(C(=O)NCc5ncccc5C(=O)O)cc4)c3)CC[C@]3(C)C(CCC4[C@@]5(C)CC[C@H](O)C(C)(C)C5CC[C@]43C)C12 (stereo partly drawn) [Example 195] | 5 nM | 6 nM |  | 
C=C(C)[C@@H]1CC[C@]2(C(=O)NCCc3cccc(C(=O)NCc4ccc(OCCCN5CCN(S(=O)(=O)CC)CC5)cc4)c3)CC[C@]3(C)C(CCC4[C@@]5(C)CC[C@H](O)C(C)(C)C5CC[C@]43C)C12 (stereo partly drawn) [Example 236] | 30 nM | 19.8 nM |  | 
C=C(C)[C@@H]1CC[C@]2(C(=O)NCc3cccc(C(=O)NCCNC(C)=O)c3)CC[C@]3(C)C(CCC4[C@@]5(C)CC[C@H](O)C(C)(C)C5CC[C@]43C)C12 (stereo partly drawn) [Example 4] | 2300 nM | 155 nM |  | 
C=C(C)[C@@H]1CC[C@]2(C(=O)NCCc3cccc(C(=O)NCc4ccc(O)c(C(=O)OC)c4)c3)CC[C@]3(C)C(CCC4[C@@]5(C)CC[C@H](O)C(C)(C)C5CC[C@]43C)C12 (stereo partly drawn) [Example 239] | 105 nM | 32.1 nM |  | 
C=C(C)[C@@H]1CC[C@]2(C(=O)NCc3cccc(C(=O)NCCc4ccc(F)c(C(=O)OC)c4)c3)CC[C@]3(C)C(CCC4[C@@]5(C)CC[C@H](O)C(C)(C)C5CC[C@]43C)C12 (stereo partly drawn) [Example 33] | 18 nM | 135 nM |  | < 100 nM
C=C(C)[C@@H]1CC[C@]2(C(=O)NCCc3cccc(C(=O)NCc4ncccc4C(=O)OC)c3)CC[C@]3(C)C(CCC4[C@@]5(C)CC[C@H](O)C(C)(C)C5CC[C@]43C)C12 (stereo partly drawn) [Example 227] | 761 nM | 67.5 nM |  | 
C=C(C)[C@@H]1CC[C@]2(C(=O)NCc3ccc(OC)c(C(=O)NCCCCC(=O)O)c3)CC[C@]3(C)C(CCC4[C@@]5(C)CC[C@H](O)C(C)(C)C5CC[C@]43C)C12 (stereo partly drawn) [Example 114] | 211 nM | 48.4 nM | < 100 nM | 
C=C(C)[C@@H]1CC[C@]2(C(=O)NCc3cccc(C(=O)NCc4cc(C(=O)OC)ccc4F)c3)CC[C@]3(C)C(CCC4[C@@]5(C)CC[C@H](O)C(C)(C)C5CC[C@]43C)C12 (stereo partly drawn) [Example 24] | > 10000 nM | 186 nM |  | 

SMILES | EC50 [1, 3] | IC50 [2, 4] | IC50 [2, 5] | EC50 [1, 6]
C=C(C)[C@@H]1CC[C@]2(C(=O)NCCc3cccc(C(=O)NCc4ccc(C(=O)N(C)CCc5ccccn5)cc4)c3)CC[C@]3(C)C(CCC4[C@@]5(C)CC[C@H](O)C(C)(C)C5CC[C@]43C)C12 (stereo partly drawn) [Example 137] | 10.5 nM | 10.8 nM | < 100 nM | < 100 nM
C=C(C)[C@@H]1CC[C@]2(C(=O)NCc3cccc(C(=O)Nc4ccc5cc(C(=O)O)ccc5c4)c3)CC[C@]3(C)C(CCC4[C@@]5(C)CC[C@H](O)C(C)(C)C5CC[C@]43C)C12 (stereo partly drawn) [Example 18] | 6100 nM | 108 nM |  | 
C=C(C)[C@@H]1CC[C@]2(C(=O)NCCc3cccc(C(=O)N[C@@H](C)c4ccccn4)c3)CC[C@]3(C)C(CCC4[C@@]5(C)CC[C@H](O)C(C)(C)C5CC[C@]43C)C12 (stereo partly drawn) [Example 158] | > 10000 nM | 249 nM |  | 
C=C(C)[C@@H]1CC[C@]2(C(=O)NCCc3cccc(C(=O)NCc4ccc(C(=O)N[C@H](CC(=O)O)C(=O)O)cn4)c3)CC[C@]3(C)C(CCC4[C@@]5(C)CC[C@H](O)C(C)(C)C5CC[C@]43C)C12 (stereo partly drawn) [Example 222] | 727 nM | 65.7 nM |  | 
C=C(C)[C@@H]1CC[C@]2(C(=O)NCc3cccc(C(=O)NCc4ccc(O)c(C(=O)O)c4)c3)CC[C@]3(C)C(CCC4[C@@]5(C)CC[C@H](O)C(C)(C)C5CC[C@]43C)C12 (stereo partly drawn) [Example 13] | 873 nM | 28 nM | < 100 nM | 
C=C(C)[C@@H]1CC[C@]2(C(=O)NCc3ccc(F)c(C(=O)NCc4cccc(C(=O)O)c4)c3)CC[C@]3(C)C(CCC4[C@@]5(C)CC[C@H](O)C(C)(C)C5CC[C@]43C)C12 (stereo partly drawn) [Example 109] | 50 nM | 149 nM |  | < 100 nM
CC(=O)[C@@H]1CC[C@]2(C(=O)NCCc3cccc(C(=O)NCc4ccc(C(=O)O)cc4)c3)CC[C@]3(C)C(CCC4[C@@]5(C)CC[C@H](O)C(C)(C)C5CC[C@]43C)C12 (stereo partly drawn) [Example 264] | 161 nM | 29.5 nM |  | 
C=C(CN1CCCC1)[C@@H]1CC[C@]2(C(=O)NCCc3cccc(C(=O)NCc4ccc(C(=O)O)cn4)c3)CC[C@]3(C)C(CCC4[C@@]5(C)CC[C@H](O)C(C)(C)C5CC[C@]43C)C12 (stereo partly drawn) [Example 265] | 172 nM | 58 nM |  | 
C=C(C)[C@@H]1CC[C@]2(C(=O)NCCc3cccc(C(=O)NCCC(=O)O)c3)CC[C@]3(C)C(CCC4[C@@]5(C)CC[C@H](O)C(C)(C)C5CC[C@]43C)C12 (stereo partly drawn) [Example 57] | 1200 nM | 98.2 nM | < 100 nM | 
C=C(C)[C@@H]1CC[C@]2(C(=O)NCc3ccc(F)c(C(=O)NCc4ccc(C(=O)O)cc4)c3)CC[C@]3(C)C(CCC4[C@@]5(C)CC[C@H](O)C(C)(C)C5CC[C@]43C)C12 (stereo partly drawn) [Example 107] | 130 nM | 103 nM |  | 
C=C(C)[C@@H]1CC[C@]2(C(=O)NCCc3cccc(C(=O)NCc4ccc(OCCCn5cncc5C(=O)O)c(C(=O)O)c4)c3)CC[C@]3(C)C(CCC4[C@@]5(C)CC[C@H](O)C(C)(C)C5CC[C@]43C)C12 (stereo partly drawn) [Example 246] | 233 nM | 57.3 nM |  | 
C=C(C)[C@@H]1CC[C@]2(C(=O)NCCc3cccc(C(=O)NCc4ccccc4O)c3)CC[C@]3(C)C(CCC4[C@@]5(C)CC[C@H](O)C(C)(C)C5CC[C@]43C)C12 (stereo partly drawn) [Example 198] | 468 nM | 57.6 nM |  | 
C=C(C)[C@@H]1CC[C@]2(C(=O)NCc3cccc(C(=O)NCC(F)(F)c4ccc(C(=O)O)cc4)c3)CC[C@]3(C)C(CCC4[C@@]5(C)CC[C@H](O)C(C)(C)C5CC[C@]43C)C12 (stereo partly drawn) [Example 37] | 7.3 nM | 56.7 nM | < 100 nM | < 100 nM
C=C(C)[C@@H]1CC[C@]2(C(=O)NCc3cccc(C(=O)NCC(C)(C)c4cccc(C(=O)O)c4)c3)CC[C@]3(C)C(CCC4[C@@]5(C)CC[C@H](O)C(C)(C)C5CC[C@]43C)C12 (stereo partly drawn) [Example 39] | 5.3 nM | 40.2 nM | < 100 nM | < 100 nM
C=C(C)[C@@H]1CC[C@]2(C(=O)NCc3cccc(C(=O)NCCCCC(=O)O)c3)CC[C@]3(C)C(CCC4[C@@]5(C)CCC(=O)C(C)(C)C5CC[C@]43C)C12 (stereo partly drawn) [Example 141] | 1500 nM | 157 nM |  | 
C=C(C)[C@@H]1CC[C@]2(C(=O)NCc3cccc(C(=O)NCc4cccc(C(=O)O)c4C)c3)CC[C@]3(C)C(CCC4[C@@]5(C)CC[C@H](O)C(C)(C)C5CC[C@]43C)C12 (stereo partly drawn) [Example 17] | 87 nM | 32 nM | < 100 nM | < 100 nM
